Assay results taken from US20160257651A1, “NOVEL COMPOUND WITH ANTIBACTERIAL ACTIVITY” (priority 2013, published 2016).
≈ marks a conversion by molar mass, not a printed value. Read-outs that look alike come from different tables or passages of the source.

Key:
S. aureus Mu50 = assay: microbe, parasite or virus in culture; type: cell-based, Staphylococcus aureus; details: for MIC: S. aureus Mu50, quinolone-resistant MRSA, ParC S80F, GyrA S84L; for MIC ratio (Mu50 MIC/FDA209P MIC): MIC for S. aureus Mu50 / MIC for S. aureus FDA209P
Method: (§1) Then, the cell suspension was diluted 500 times with CAMHB mentioned above.

[1] = system: S. aureus FDA209P (ATCC 6538P); assay: microbe, parasite or virus in culture; type: cell-based, Staphylococcus aureus; details: quinolone-susceptible MSSA, ParC 80S, GyrA 84S
Method: as §1

[2] = system: E. coli strain 1709 plus PABN; assay: Antibacterial activity against Escherichia coli in combination with efflux pump inhibitor PAβN; details: E coli plus PABN 40 mg/L, strain 1709, Quinolone Sus
Description: (§9) The numerical values in the tables indicate MIC (mg/L), Res means resistant bacterium, and Sus means susceptible bacterium.
(§10) Antibacterial activities against Escherichia coli of the compounds shown Table 19 were examined by the following method.
(§11) After completion of the culture, the cells were suspended in fresh TBS to prepare a cell suspension showing an absorbance of 0.3 at 578 nm.

[3] = system: E. coli strain 1708 plus PABN; assay: as above; details: E coli plus PABN 40 mg/L, strain 1708, Quinolone Res
Description: as §9, §10, §11

E. coli strain 1708 = assay: Antibacterial activity against Escherichia coli
Description: as §9, §10, §11

E. coli strain 1709 = assay: Antibacterial activity against Escherichia coli
Description: as §9, §10, §11

E. faecium RPR2 = assay: MIC against Enterococcus bacteria; type: cell-based, Enterococcus faecium
Method: (§2) Antibacterial activities of the compound J-131CP against Enterococcus bacteria (Enterococcus faecium and Enterococcus faecalis) were examined by the following methods.
(§3) The compound J-131CP and quinolones were prepared in the same manner as that of Test Example 1-1.
(§4) Cell suspensions were prepared in the same manner as that of Test Example 1-1 described in the section of measurement of MIC in Test Example 1-1, except that the Enterococcus bacterium strains mentioned in Table 8 were used instead of Staphylococcus aureus, and MICs of the compound J-131CP and quinolones as control were determined for the strains in the same manner as that of Test Example 1-1 described in the section of measurement of MIC in Test Example 1-1. In Table 8, the amino acid substitution mutations in QRDR of the strains are underlined.

E. faecium NCTC12202 = assay: MIC against Enterococcus bacteria; type: cell-based, Enterococcus faecium
Method: as §2, §3, §4

E. faecalis NCTC12201 = assay: MIC against Enterococcus bacteria; type: cell-based; details: quinolone-susceptible
Method: as §2, §3, §4

S. pneumoniae KBSP11 = assay: MIC against pneumococcus, CAMHB with 5 mass % LHB; type: cell-based, Streptococcus pneumoniae
Method: (§5) The S. pneumoniae strains used for this test belong to any one of the categories of penicillin-susceptible pneumococcus (penicillin-susceptible Streptococcus pneumoniae, PSSP), penicillin-intermediate pneumococcus (penicillin-intermediate Streptococcus pneumoniae, PISP), and penicillin-resistant pneumococcus (penicillin-resistant Streptococcus pneumoniae, PRSP).
(§6) The lysed horse blood was prepared by adding sterilized water to horse sterile defibered blood (produced by Nippon Bio-Supp. Center) at a ratio of 1:1, subjecting the mixture to freezing and thawing 5 times, then centrifuging the mixture twice at 10,000 rpm for 20 minutes, and filtering the supernatant through a filter.
(§7) The S. pneumoniae strains mentioned in Table 11 were each cultured overnight at 37° C. on a blood agar medium as stationary culture. The blood agar medium was prepared by adding 5 mass % ovine sterile defibered blood (produced by Nippon Bio-Supp. Center) to a heart infusion agar medium (produced by EIKEN CHEMICAL). Each S. pneumoniae strain cultured overnight at 37° C. as stationary culture was further subcultured overnight at 37° C. on fresh blood agar medium as stationary culture. After completion of the culture, cells of each pneumococcus strain were collected with a swab, and suspended in physiological saline, and the suspension was adjusted with physiological saline to show absorbance of 0.08 to 0.13 at 625 nm as measured with an absorbance meter (produced by Amersham), and further diluted 200 times with CAMHB containing 5 mass % LHB.
(§8) In Table 11, the amino acid substitution mutations in QRDR of the strains are underlined.

S. pneumoniae BCLSP37 = assay: MIC against pneumococcus, CAMHB with 5 mass % LHB; type: cell-based, Streptococcus pneumoniae; details: quinolone-resistant, ParC 79Phe, GyrA 85Lys
Method: as §5, §6, §7, §8

E. faecalis 36-15722 = assay: MIC against Enterococcus bacteria; type: cell-based, Enterococcus faecalis; details: E. faecalis 36-15722, quinolone-resistant, ParC 80Ile, GyrA 84Ile
Method: as §2, §3, §4

[4] = Staphylococcus aureus, ATCC 6538P / FDA209P / MSSA, read-out: MIC
[5] = Enterococcus faecium, NCTC 12202 / VRE
[6] = Enterococcus faecalis, NCTC 12201 / VRE
[7] = Streptococcus pneumoniae, BCLSP37, S. pneumoniae BCLSP37, PSSP, read-out: MIC
[8] = Enterococcus faecalis, 3615722, read-out: MIC

SMILES	MIC (S. aureus Mu50; Staphylococcus aureus, MRSA) [µg/mL]	MIC [1, 4] [µg/mL]	MIC [2]	MIC [3] [µg/mL]	MIC (E. coli strain 1708) [µg/mL]	MIC (E. coli strain 1709) [µg/mL]	MIC ratio (Mu50 MIC/FDA209P MIC) (S. aureus Mu50)	MIC (E. faecium RPR2; Enterococcus faecium, RPR2) [µg/mL]	MIC (E. faecium NCTC12202; [5]) [µg/mL]	MIC (E. faecalis NCTC12201; [6]) [µg/mL]	MIC (S. pneumoniae KBSP11; Streptococcus pneumoniae, PRSP) [µg/mL]	MIC (S. pneumoniae BCLSP37; [7]) [µg/mL]	MIC (E. faecalis 36-15722; [8]) [µg/mL]	other results
O=c1cc(CO)c2cc(F)c(-c3ccccc3)cc2n1C1CC1 [J-168]	2 (≈ 6.47 µM)	2 (≈ 6.47 µM)	≦0.06 mg/L	0.5	128 (≈ 414 µM)	16 (≈ 51.7 µM)	–	–	–	–	–	–	–	–
NCc1cc(=O)n(C2CC2)c2cc(-c3ccc(O)cc3)c(F)cc12 [J-139, 4-(aminomethyl)-1-cyclopropyl-6-fluoro-7-(4-hydroxyphenyl)hydroquinolin-2-one]	0.5 (≈ 1.54 µM)	0.5 (≈ 1.54 µM)	–	–	–	–	1	8 (≈ 24.7 µM)	8 (≈ 24.7 µM)	1 (≈ 3.08 µM)	1 (≈ 3.08 µM)	4 (≈ 12.3 µM)	4 (≈ 12.3 µM)	–
Nc1ccc(-c2cc3c(cc2F)c(CO)cc(=O)n3C2CC2)cc1 [J-132CP, 7-(4-aminophenyl)-1-cyclopropyl-6-fluoro-4-(hydroxymethyl)hydroquinolin-2-one]	0.5 (≈ 1.54 µM)	0.5 (≈ 1.54 µM)	–	–	–	–	1	8 (≈ 24.7 µM)	16 (≈ 49.3 µM)	2 (≈ 6.17 µM)	2 (≈ 6.17 µM)	4 (≈ 12.3 µM)	2 (≈ 6.17 µM)	–
Nc1ccc(-c2cc3c(cc2F)c(CO)cc(=O)n3C2CC2)cc1 [J-166]	–	–	≦0.06 mg/L	0.5	128 (≈ 395 µM)	8 (≈ 24.7 µM)	–	–	–	–	–	–	–	MIC (S. aureus Mu50): 1 µg/mL (≈ 3.08 µM); MIC [1]: 1 µg/mL (≈ 3.08 µM); MIC (E. faecium RPR2; E. faecium RPR2, quinolone-resistant, ParC 82Ile, GyrA 84Ile 88Lys): 8 µg/mL (≈ 24.7 µM); MIC (E. faecium NCTC12202; E. faecium NCTC12202, VRE, quinolone-susceptible): 16 µg/mL (≈ 49.3 µM); MIC (E. faecalis NCTC12201; E. faecalis NCTC12201, VRE): 1 µg/mL (≈ 3.08 µM); MIC (S. pneumoniae KBSP11; S. pneumoniae KBSP11, PRSP, quinolone-susceptible): 2 µg/mL (≈ 6.17 µM); MIC (S. pneumoniae BCLSP37; S. pneumoniae BCLSP37, PSSP): 2 µg/mL (≈ 6.17 µM); MIC (E. faecalis 36-15722): 2 µg/mL (≈ 6.17 µM)
O=c1cc(CO)c2cc(F)c(-c3ccc(O)cc3)c(Cl)c2n1C1CC1 [J-161]	0.5 (≈ 1.39 µM)	0.25 (≈ 0.695 µM)	0.13 µg/mL	1	128 (≈ 356 µM)	16 (≈ 44.5 µM)	–	8 (≈ 22.2 µM)	16 (≈ 44.5 µM)	1 (≈ 2.78 µM)	2 (≈ 5.56 µM)	4 (≈ 11.1 µM)	1 (≈ 2.78 µM)	–
COc1c(-c2ccc(O)cc2)c(F)cc2c(CO)cc(=O)n(C3CC3)c12 [J-156]	0.5 (≈ 1.41 µM)	0.5 (≈ 1.41 µM)	0.1 µg/mL	2	128 (≈ 360 µM)	128 (≈ 360 µM)	–	–	–	2 (≈ 5.63 µM)	4 (≈ 11.3 µM)	2 (≈ 5.63 µM)	2 (≈ 5.63 µM)	–
O=c1cc(CO)c2cc(F)c(-c3ccc(O)cc3)c(F)c2n1C1CC1 [J-155]	0.13 (≈ 0.379 µM)	0.25 (≈ 0.728 µM)	≦0.06 mg/L	0.5	128 (≈ 373 µM)	8 (≈ 23.3 µM)	–	8 (≈ 23.3 µM)	16 (≈ 46.6 µM)	1 (≈ 2.91 µM)	12 (≈ 35 µM)	1 (≈ 2.91 µM)	1 (≈ 2.91 µM)	–
O=c1cc(CO)c2ccc(-c3ccc(O)cc3)c(F)c2n1C1CC1 [J-154, 1-cyclopropyl-8-fluoro-4-(hydroxymethyl)-7-(4-hydroxyphenyl)hydroquinolin-2-one]	0.25 (≈ 0.768 µM)	0.5 (≈ 1.54 µM)	–	–	–	–	0.5	8 (≈ 24.6 µM)	16 (≈ 49.2 µM)	4 (≈ 12.3 µM)	8 (≈ 24.6 µM)	8 (≈ 24.6 µM)	2 (≈ 6.15 µM)	–
O=c1cc(CO)c2cc(F)c(-c3ccc(O)c(O)c3)cc2n1C1CC1 [J-176]	1 (≈ 2.93 µM)	2 (≈ 5.86 µM)	–	–	128 (≈ 375 µM)	32 (≈ 93.7 µM)	–	4 (≈ 11.7 µM)	8 (≈ 23.4 µM)	2 (≈ 5.86 µM)	4 (≈ 11.7 µM)	8 (≈ 23.4 µM)	2 (≈ 5.86 µM)	–
NOCc1cc(=O)n(C2CC2)c2cc(-c3ccc(O)cc3)c(F)cc12 [J-174]	1 (≈ 2.94 µM)	2 (≈ 5.88 µM)	0.5 µg/mL	4	128 (≈ 376 µM)	64 (≈ 188 µM)	–	–	–	4 (≈ 11.8 µM)	–	–	8 (≈ 23.5 µM)	–
CC1COc2c(-c3ccc(O)cc3)c(F)cc3c(CO)cc(=O)n1c23 (stereo not shown) [J-149, 9-fluoro-7-(hydroxymethyl)-10-(4-hydroxyphenyl)-3-methyl-2H-[1,4]oxazino[2,3,4-ij]quinolin-5(3H)-one]	0.5 (≈ 1.46 µM)	0.5 (≈ 1.46 µM)	–	–	–	–	1	16 (≈ 46.9 µM)	128 (≈ 375 µM)	0.5 (≈ 1.46 µM)	4 (≈ 11.7 µM)	8 (≈ 23.4 µM)	0.5 (≈ 1.46 µM)	–
CC1NCc2cc(-c3cc4c(cc3F)c(CO)cc(=O)n4C3CC3)ccc21 (stereo not shown) [J-144, 1-cyclopropyl-6-fluoro-4-(hydroxymethyl)-7-(1-methylisoindolin-5-yl)hydroquinolin-2-one]	1 (≈ 2.74 µM)	0.5 (≈ 1.37 µM)	–	–	–	–	2	4 (≈ 11 µM)	8 (≈ 22 µM)	0.5 (≈ 1.37 µM)	0.25 (≈ 0.686 µM)	0.5 (≈ 1.37 µM)	0.5 (≈ 1.37 µM)	–
